# From ChEMBL document CHEMBL5046301, “pH-Responsive Antimicrobial Peptide with Selective Killing Activity for Bacterial Abscess Therapy” (J Med Chem, 2022)
# The source made the active and inactive calls. No cut-off for these calls is given here.
# What was measured:
# [1] = tested on: Pseudomonas aeruginosa; experiment: Antibacterial activity against Pseudomonas aeruginosa ATCC 27853 assessed as inhibition of bacterial growth at pH 6.5 incubated for 24 hrs by NCCLS protocol based method; type: functional
# [2] = tested on: Staphylococcus aureus; experiment: Antibacterial activity against methicillin-resistant Staphylococcus aureus ATCC 43300 assessed as inhibition of bacterial growth at pH 6.5 incubated for 24 hrs by NCCLS protocol based method; type: functional
# [3] = tested on: Pseudomonas aeruginosa; experiment: Antimicrobial activity against Pseudomonas aeruginosa ATCC 27853 assessed as reduction in bacterial growth at pH 6.5 in presence of KCl; type: functional, organism-based
# [4] = tested on: Escherichia coli; experiment: Antibacterial activity against Escherichia coli ATCC 25922 assessed as inhibition of bacterial growth at pH 6.5 incubated for 24 hrs by NCCLS protocol based method; type: functional
# [5] = tested on: Staphylococcus aureus; experiment: Antibacterial activity against Staphylococcus aureus ATCC 25923 assessed as inhibition of bacterial growth at pH 6.5 incubated for 24 hrs by NCCLS protocol based method; type: functional
# [6] = Cytotoxicity against mouse RAW264.7 cells assessed as inhibition of cell growth at pH 6.5 measured after 24 hrs by MTT assay; type: toxicity, cell-based
# [7] = tested on: Pseudomonas aeruginosa; experiment: Antimicrobial activity against Pseudomonas aeruginosa ATCC 27853 assessed as reduction in bacterial growth at pH 6.5 in presence of FeCl3; type: functional, organism-based
# [8] = tested on: Pseudomonas aeruginosa; experiment: Induction of morphological changes in Pseudomonas aeruginosa ATCC 27853 assessed as disruption in cell membrane at 2 uM at pH 6.5 incubated for 1 hr by SEM analysis; type: functional, organism-based
# [9] = tested on: Pseudomonas aeruginosa; experiment: Antimicrobial activity against Pseudomonas aeruginosa ATCC 27853 assessed as reduction in bacterial growth at pH 6.5 in presence of MgCl2; type: functional
# [10] = tested on: Pseudomonas aeruginosa; experiment: Antimicrobial activity against Pseudomonas aeruginosa ATCC 27853 infected in ICR cutaneous abscess mouse model assessed as complete epidermis structure at 5 mg/kg,ip administered twice a day measured after 3 days by hematoxylin and eosin staining based analysis; type: functional, organism-based; conditions: time 3.0 day
# [11] = tested on: Pseudomonas aeruginosa; experiment: Induction of morphological changes in Pseudomonas aeruginosa ATCC 27853 assessed as plasma membrane collapse at 2 uM at pH 6.5 incubated for 1 hr by TEM analysis; type: functional, organism-based
# [12] = tested on: Pseudomonas aeruginosa; experiment: Antimicrobial activity against Pseudomonas aeruginosa ATCC 27853 assessed as reduction in bacterial growth at pH 6.5 in presence of CaCl2; type: functional, organism-based
# [13] = tested on: Staphylococcus aureus; experiment: Antibacterial activity against Staphylococcus aureus ATCC 29213 assessed as inhibition of bacterial growth at pH 7.4 incubated for 24 hrs by NCCLS protocol based method; type: functional
# [14] = tested on: Pseudomonas aeruginosa; experiment: Antimicrobial activity against Pseudomonas aeruginosa ATCC 27853 assessed as reduction in bacterial growth at pH 6.5 in presence of NH4Cl; type: functional, organism-based
# [15] = tested on: Pseudomonas aeruginosa; experiment: Antibacterial activity against Pseudomonas aeruginosa ATCC 27853 assessed as inhibition of bacterial growth at pH 7.4 incubated for 24 hrs by NCCLS protocol based method; type: functional
# [16] = tested on: Cell membrane; experiment: Induction of outer membrane permeabilization in Pseudomonas aeruginosa ATCC 27853 assessed as pH responsive ability by measuring fold increase in NPN uptake at 64 uM by NPN-dye based fluorescence analysis relative to control; type: subcellular
# [17] = Hemolytic activity in human RBC assessed as hemoglobin release at pH 7.4 incubated for 1 hr; type: toxicity, cell-based; conditions: erythrocyte, pH 7.4, 1 h
# [18] = tested on: Pseudomonas aeruginosa; experiment: Induction of morphological changes in Pseudomonas aeruginosa ATCC 27853 assessed as plasma membrane collapse at 2 uM at pH 7.4 incubated for 1 hr by TEM analysis; type: functional, organism-based
# [19] = tested on: Mus musculus; experiment: Antiinflammatory activity in ICR cutaneous abscess mouse model assessed as reduction in IL-2 expression in serum at 5 mg/kg,ip administered twice a day measured after 72 hrs by ELISA (reference value: 1.53 +/ 0.06 10^3pg/ml); type: functional
# [20] = tested on: Cell membrane; experiment: Induction of outer membrane permeabilization in Pseudomonas aeruginosa ATCC 27853 assessed as increase in NPN uptake by NPN-dye based fluorescence analysis; type: subcellular; conditions: dose 1-64 µM
# [21] = tested on: Pseudomonas aeruginosa; experiment: Antipseudomonal activity against Pseudomonas aeruginosa ATCC 27853 infected in ICR cutaneous abscess mouse model assessed as fold reduction in colony forming unit at 5 mg/kg,ip administered twice a day measured after 72 hrs relative to control; type: functional
# [22] = tested on: Cell membrane; experiment: Induction of cytoplasmic membrane depolarization in Pseudomonas aeruginosa ATCC 27853 assessed as increase in fluorescence intensity at acidic and alkaline pH by DiSC3-5 dye based fluorescence assay; type: subcellular; conditions: TDE = time-dependent effect
# [23] = Cytotoxicity against mouse RAW264.7 cells assessed as inhibition of cell growth at pH 7.4 measured after 24 hrs by MTT assay; type: toxicity, cell-based
# [24] = Toxicity in ICR cutaneous abscess mouse model assessed as reduction in epidermal cell apoptosis at 10 mg/kg,sc measured after 24 hrs by TUNEL assay; type: organism-based; conditions: in vivo
# [25] = tested on: Pseudomonas aeruginosa; experiment: Antimicrobial activity against Pseudomonas aeruginosa ATCC 27853 assessed as reduction in bacterial growth at pH 6.5 in presence of NaCl; type: functional
# [26] = tested on: Salmonella typhimurium; experiment: Antibacterial activity against Salmonella typhimurium ATCC 14028 assessed as inhibition of bacterial growth at pH 6.5 incubated for 24 hrs by NCCLS protocol based method; type: functional, Salmonella enterica subsp. enterica serovar Typhimurium; conditions: Salmonella enterica
# [27] = tested on: Pseudomonas aeruginosa; experiment: Induction of morphological changes in Pseudomonas aeruginosa ATCC 27853 assessed as change in intracellular contents at 2 uM at pH 7.4 incubated for 1 hr by TEM analysis; type: functional, organism-based
# [28] = tested on: Pseudomonas aeruginosa; experiment: Antimicrobial activity against Pseudomonas aeruginosa ATCC 27853 infected in ICR cutaneous abscess mouse model assessed as reduction in necrotic tissue area in infection site at 5 mg/kg,ip administered twice a day measured after 3 days by hematoxylin and eosin staining based analysis; type: functional, organism-based; conditions: time 3.0 day
# [29] = tested on: Staphylococcus aureus; experiment: Antibacterial activity against Staphylococcus aureus ATCC 29213 assessed as inhibition of bacterial growth at pH 6.5 incubated for 24 hrs by NCCLS protocol based method; type: functional
# [30] = tested on: Mus musculus; experiment: Antiinflammatory activity in ICR cutaneous abscess mouse model assessed as reduction in TNF-alpha expression in serum at 5 mg/kg,ip administered twice a day measured after 72 hrs by ELISA (reference value: 1.01 +/ 0.46 10^3 pg/ml); type: functional
# [31] = tested on: Escherichia coli; experiment: Antibacterial activity against Escherichia coli ATCC 25922 assessed as inhibition of bacterial growth at pH 7.4 incubated for 24 hrs by NCCLS protocol based method; type: functional
# [32] = tested on: Pseudomonas aeruginosa; experiment: Antipseudomonal activity against Pseudomonas aeruginosa ATCC 27853 infected in ICR cutaneous abscess mouse model assessed as fold reduction in lesion area at 5 mg/kg,ip administered twice a day measured after 72 hrs relative to control; type: functional
# [33] = tested on: Salmonella typhimurium; experiment: Antibacterial activity against Salmonella enterica subsp. enterica serovar Typhimurium C77-31 assessed as inhibition of bacterial growth at pH 7.4 incubated for 24 hrs by NCCLS protocol based method; type: functional
# [34] = tested on: Staphylococcus aureus; experiment: Antibacterial activity against Staphylococcus aureus ATCC 25923 assessed as inhibition of bacterial growth at pH 7.4 incubated for 24 hrs by NCCLS protocol based method; type: functional
# [35] = tested on: Salmonella typhimurium; experiment: Antibacterial activity against Salmonella typhimurium ATCC 14028 assessed as inhibition of bacterial growth at pH 7.4 incubated for 24 hrs by NCCLS protocol based method; type: functional, Salmonella enterica subsp. enterica serovar Typhimurium; conditions: Salmonella enterica
substance,measurement,setting,value
H-FLEHLIPHVIHGLVHAIHH-NH2,MIC,[1],2 µM
same,MIC,[2],64 µM
same,Activity,[3],inactive
same,MIC,[4],2 µM
same,MIC,[5],> 64 µM
same,IC50 at 24 h,[6],> 128 µM
same,Activity,[7],Active
same,Activity,[8],Active
same,MIC,[9],2 µM
same,Activity,[10],Active
same,Activity,[11],Active
same,Activity,[12],Active
same,MIC,[13],> 64 µM
same,Activity,[14],Active
same,MIC,[15],> 64 µM
same,Activity,[16],65.9%
same,MHC10,[17],> 128 µM
same,Activity,[18],inactive
same,Activity,[19],1.15 10^3pg/ml
same,Activity,[20],Dose-Dependent Effect
same,fold change (FC),[21],10
same,Activity,[22],Tde
same,IC50 at 24 h,[23],> 128 µM
same,Activity,[24],Non-Toxic
same,MIC,[25],2 µM
same,MIC,[26],16 µM
same,Activity,[27],inactive
same,Activity,[28],Active
same,MIC,[29],> 64 µM
same,Activity,[30],8.14 10^2pg/ml
same,MIC,[31],> 64 µM
same,fold change (FC),[32],10
same,MIC,[33],> 64 µM
same,MIC,[34],> 64 µM
same,MIC,[35],> 64 µM
